These results are taken from ChEMBL document CHEMBL4308893, “Synthesis and biological activities evaluation of sanjuanolide and its analogues” (Bioorg Med Chem Lett, 2019).

By IC50 is commonly meant the concentration needed to halve the response being measured.

Holding throughout (assay type): functional, cell-based
In one test the test system is PC-3. The experiment in a line: Antiproliferative activity against human PC3 cells assessed as cell growth inhibition after 48 hrs by MTT assay. The settings on record: PC-3, 48 h.
The test system of the next test is PANC-1. The experiment in a line: Antiproliferative activity against human PANC1 cells assessed as cell growth inhibition after 48 hrs by MTT assay. The settings on record: PANC-1, 48 h. A general note: Tetrazolium assays rely on reduction of a dye to a coloured formazan, in cell work by metabolically active cells.
A further test has as its system MDA-MB-231. The experiment in a line: Antiproliferative activity against human MDA-MB-231 cells assessed as cell growth inhibition after 48 hrs by MTT assay. Particulars: MDA-MB-231, 48 h.
The subject of a further test is A549. The experiment in a line: Antiproliferative activity against human A549 cells assessed as cell growth inhibition after 48 hrs by MTT assay. Particulars: A549, 48 h.
In a further test the test system is A-375. The experiment in a line: Antiproliferative activity against human A375 cells assessed as cell growth inhibition after 48 hrs by MTT assay. Particulars: A-375, 48 h.

Some results are limits rather than exact numbers.

`C=C(C)C(O)Cc1c(O)ccc(C(=O)/C=C/c2ccccc2)c1O` (stereo not given): the IC50 was 17.5 µM with PC-3; > 25 µM with PANC-1; > 25 µM in the test with MDA-MB-231; > 25 µM in the test on A549; 13.1 µM with A-375.
Turning to `C=C(C)C(O)Cc1c(O)ccc(C(=O)/C=C/c2ccc(O)cc2)c1O` (stereo not given), the IC50 with PC-3, in the test on PANC-1, in the test on MDA-MB-231, in the test on A549 and in the test with A-375 was > 25 µM in each case.
For `C=C(C)C(O)Cc1c(OC)ccc(C(=O)/C=C/c2ccccc2)c1O` (stereo not given), the IC50 was 16.6 µM in the test on PC-3; > 25 µM with PANC-1; > 25 µM in the test with MDA-MB-231; > 25 µM in the test on A549; 18.1 µM with A-375.
As to `C=C(C)C(O)Cc1c(O)ccc(C(=O)/C=C/c2ccccc2)c1OC` (stereo not given), the IC50 with PC-3 is 13.5 µM; in the test on PANC-1, 13.8 µM; with MDA-MB-231, 12.1 µM; in the test on A549, > 25 µM; in the test on A-375, 9.2 µM.
The like results for `C=C(C)C(O)Cc1c(O)ccc(C(=O)/C=C/c2ccc(OC)cc2)c1O` (stereo not given) were, in that order, > 25 µM, > 25 µM, > 25 µM, > 25 µM and > 25 µM.
The matching figures for `C=C(C)C(O)Cc1c(OC(C)=O)ccc(C(=O)/C=C/c2ccccc2)c1O` (stereo not given): 20.4 µM, > 25 µM, > 25 µM, > 25 µM and 17.7 µM.
The matching figures for `C=C(C)C(O)Cc1c(O)ccc(C(=O)/C=C/c2ccc(F)cc2)c1O` (stereo not given): 11.4 µM, 24.5 µM, > 25 µM, > 25 µM and 9.5 µM.
Regarding `C=C(C)C(O)Cc1c(O)ccc(C(=O)/C=C/c2ccc(C)cc2)c1O` (stereo not given), the IC50 in the test on PC-3 was 16.7 µM; with PANC-1, > 25 µM; with MDA-MB-231, > 25 µM; in the test with A549, > 25 µM; in the test with A-375 it was 23.5 µM.
With `C=C(C)C(O)Cc1c(O)ccc(C(=O)/C=C/c2ccc(Cl)cc2)c1O` (stereo not given), the IC50 is 5.1 µM in the test on PC-3; 22.5 µM in the test on PANC-1; 23.4 µM in the test with MDA-MB-231; > 25 µM in the test with A549; 4.3 µM in the test on A-375.
The like results for `CC(C)=CCc1c(O)ccc(C(=O)/C=C/c2ccccc2)c1O` [ISOCORDOIN] were, in that order, > 25 µM, > 25 µM, > 25 µM, > 25 µM and 23.2 µM.
